Data from ChEMBL document CHEMBL1133640, “Structure-activity studies including a Psi(CH(2)-NH) scan of peptide YY (PYY) active site, PYY(22-36), for interaction with rat intestinal PYY receptors: development of analogues with potent in vivo activity in the intestine” (J Med Chem, 2000).
Where a SMILES comes first, the peptide text is derived from it. [ ]: non-standard residue; d: D form. The star is where a group is joined. X1 = C[C@@H](O)[C@@H](CN[C@@H](CCCN=C(N)N)C(=O)N[C@@H](CCC(N)=O)C(=O)N[C@@H](CCCN=C(N)N)C(=O)N[C@@H](Cc1ccc(O)cc1)C(N)=O)N*; X2 = N=C(N)NCCC[C@@H](CN[C@@H](CCC(N)=O)C(=O)N[C@@H](CCCNC(=N)N)C(=O)N[C@@H](Cc1ccc(O)cc1)C(N)=O)N*; Argψ(CH2NH)TyrNH2 = N=C(N)NCCC[C@@H](CN[C@@H](Cc1ccc(O)cc1)C(N)=O)N*; Dip = N[C@H](C(=O)O)C(c1ccccc1)c1ccccc1; 1Nal = N[C@@H](Cc1cccc2ccccc12)C(=O)O; Tic = O=C(O)[C@@H]1Cc2ccccc2CN1

Legend:
[1] = biological target: Neuropeptide Y receptor type 1 (Homo sapiens, UniProt P25929); experiment: Affinity against Neuropeptide Y receptor Y1 in SK-N-MC cell line; assay type: cell-based
[2] = biological target: T1, Neuropeptide Y receptor type 2 (Homo sapiens, UniProt P49146); experiment: Affinity against Neuropeptide Y receptor Y2 in SK-N-BE2 cell line
T1 sequence (P49146 whole entry): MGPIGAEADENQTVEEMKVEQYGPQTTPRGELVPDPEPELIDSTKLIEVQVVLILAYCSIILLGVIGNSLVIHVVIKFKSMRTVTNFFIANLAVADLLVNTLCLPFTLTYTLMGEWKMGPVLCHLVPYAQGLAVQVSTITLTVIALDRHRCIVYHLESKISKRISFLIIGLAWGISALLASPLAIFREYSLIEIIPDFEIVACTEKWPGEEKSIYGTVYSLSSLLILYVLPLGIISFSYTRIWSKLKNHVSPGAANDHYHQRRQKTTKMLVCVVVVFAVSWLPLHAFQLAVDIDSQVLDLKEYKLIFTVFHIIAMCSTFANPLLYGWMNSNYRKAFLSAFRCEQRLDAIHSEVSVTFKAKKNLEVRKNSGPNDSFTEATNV

[3] = biological target: Neuropeptide Y receptor type 2 (Rattus norvegicus, UniProt Q9ERC0); experiment: Antisecretory potency, affinity for intestinal PYY of rat jejunum by using short circuit current (SCC) method.; assay type: tissue-based
Sequence of Neuropeptide Y receptor type 2 (Rattus norvegicus, UniProt Q9ERC0) (Q9ERC0 whole entry): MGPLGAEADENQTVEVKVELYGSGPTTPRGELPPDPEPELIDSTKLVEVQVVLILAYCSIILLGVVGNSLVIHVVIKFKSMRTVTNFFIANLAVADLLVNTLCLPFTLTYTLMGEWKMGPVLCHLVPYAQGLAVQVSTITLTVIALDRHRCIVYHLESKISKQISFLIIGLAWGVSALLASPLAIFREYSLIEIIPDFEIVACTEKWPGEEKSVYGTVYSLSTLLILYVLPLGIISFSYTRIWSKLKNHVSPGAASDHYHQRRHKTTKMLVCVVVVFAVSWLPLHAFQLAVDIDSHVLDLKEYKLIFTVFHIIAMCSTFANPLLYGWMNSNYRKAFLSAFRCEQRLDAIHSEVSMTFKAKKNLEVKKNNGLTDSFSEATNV

Sequence of Neuropeptide Y receptor type 1 (P25929 whole entry): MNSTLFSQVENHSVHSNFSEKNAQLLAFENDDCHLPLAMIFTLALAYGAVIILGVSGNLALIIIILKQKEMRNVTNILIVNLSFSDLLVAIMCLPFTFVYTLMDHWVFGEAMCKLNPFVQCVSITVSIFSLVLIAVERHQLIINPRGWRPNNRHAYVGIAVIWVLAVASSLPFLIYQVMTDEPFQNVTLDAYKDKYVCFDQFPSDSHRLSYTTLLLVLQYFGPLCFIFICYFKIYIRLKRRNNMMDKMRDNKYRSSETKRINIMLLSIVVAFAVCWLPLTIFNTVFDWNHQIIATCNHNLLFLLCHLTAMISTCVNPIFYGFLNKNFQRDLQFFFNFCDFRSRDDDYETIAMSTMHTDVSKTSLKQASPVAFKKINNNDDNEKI

| IC50 [1] [nM] | IC50 [2] [nM] | IC50 [3] [nM] | Molecule |
| --- | --- | --- | --- |
| 47.9 | 56.5 | > 100 | CC(=O)N[C@@H](C)C(=O)N[C@@H](CO)C(=O)N[C@@H](CC(C)C)C(=O)N[C@@H](CCCN=C(N)N)C(=O)N[C@@H](Cc1c[nH]cn1)C(=O)N[C@@H](Cc1ccc(O)cc1)C(=O)N[C@@H](CC(C)C)C(=O)N[C@@H](CC(N)=O)C(=O)N[C@H](Cc1c[nH]c2ccccc12)C(=O)N[C@H](C(=O)N[C@H](C(=O)N[C@@H](CCCN=C(N)N)C(=O)N[C@@H](CCC(N)=O)C(=O)N[C@@H](CCCN=C(N)N)C(=O)N[C@@H](Cc1ccc(O)cc1)C(N)=O)[C@@H](C)O)C(C)C |
| 1510 | 1.39 | 0.28 | CC(=O)N[C@@H](C)C(=O)N[C@@H](CO)C(=O)N[C@@H](CC(C)C)C(=O)N[C@@H](CCCNC(=N)N)C(=O)N[C@@H](Cc1cnc[nH]1)C(=O)N[C@@H](Cc1ccc(O)cc1)C(=O)N[C@@H](CC(C)C)C(=O)N[C@@H](CC(N)=O)C(=O)N[C@@H](Cc1c[nH]c2ccccc12)C(=O)N[C@H](C(=O)N[C@H](C(=O)N[C@@H](CCCNC(=N)N)C(=O)N[C@@H](CCC(N)=O)C(=O)N[C@@H](CCCNC(=N)N)CN[C@@H](Cc1ccc(O)cc1)C(N)=O)[C@@H](C)O)C(C)C |
| 1590 | 57 | 0.59 | CCCC[C@H](NC(=O)[C@H](CO)NC(=O)[C@H](C)NC(C)=O)C(=O)N[C@@H](CCCN=C(N)N)C(=O)N[C@@H](Cc1c[nH]cn1)C(=O)N[C@@H](Cc1ccc(O)cc1)C(=O)N[C@@H](CCCC)C(=O)N[C@@H](CC(N)=O)C(=O)N[C@@H](CCCC)C(=O)N[C@@H](CCC)C(=O)N[C@H](C(=O)N[C@@H](CCCN=C(N)N)C(=O)N[C@@H](CCC(N)=O)C(=O)N[C@@H](CCCN=C(N)N)C(=O)N[C@@H](Cc1ccc(O)cc1)C(N)=O)[C@@H](C)O |
| > 1000 | 1.3 | 0.91 | CC(=O)N[C@@H](C)C(=O)N[C@@H](CO)C(=O)N[C@@H](CC(C)C)C(=O)N[C@@H](CCCNC(=N)N)C(=O)N[C@@H](Cc1cnc[nH]1)C(=O)N[C@@H](Cc1ccc(O)cc1)C(=O)N[C@@H](CC(C)C)C(=O)N[C@@H](CC(N)=O)C(=O)N[C@@H](CC(C)C)C(=O)N[C@H](C(=O)N[C@H](C(=O)N[C@@H](CCCNC(=N)N)C(=O)N[C@@H](CCC(N)=O)C(=O)N[C@@H](CCCNC(=N)N)C(=O)N[C@@H](Cc1ccc(O)cc1)C(N)=O)[C@@H](C)O)C(C)C |
| 1270 | 864 | > 100 | CC(=O)N[C@@H](C)C(=O)N[C@@H](CO)C(=O)N[C@@H](CC(C)C)C(=O)N[C@@H](CCCN=C(N)N)C(=O)N[C@@H](Cc1c[nH]cn1)C(=O)N[C@H](CN[C@@H](CC(C)C)C(=O)N[C@@H](CC(N)=O)C(=O)N[C@@H](CC(C)C)C(=O)N[C@H](C(=O)N[C@H](C(=O)N[C@@H](CCCN=C(N)N)C(=O)N[C@@H](CCC(N)=O)C(=O)N[C@@H](CCCN=C(N)N)C(=O)N[C@@H](Cc1ccc(O)cc1)C(N)=O)[C@@H](C)O)C(C)C)Cc1ccc(O)cc1 |
| 1390 | 55 | 0.36 | CC(=O)N[C@@H](C)C(=O)N[C@@H](CO)C(=O)N[C@@H](CC(C)C)C(=O)N[C@@H](CCCN=C(N)N)C(=O)N[C@@H](Cc1c[nH]cn1)C(=O)N[C@@H](Cc1ccc(O)cc1)C(=O)N[C@H](CN[C@@H](CC(N)=O)C(=O)N[C@@H](CC(C)C)C(=O)N[C@H](C(=O)N[C@H](C(=O)N[C@@H](CCCN=C(N)N)C(=O)N[C@@H](CCC(N)=O)C(=O)N[C@@H](CCCN=C(N)N)C(=O)N[C@@H](Cc1ccc(O)cc1)C(N)=O)[C@@H](C)O)C(C)C)CC(C)C |
| 769 | > 3000 | > 100 | CC(=O)N[C@@H](C)C(=O)N[C@@H](CO)C(=O)N[C@@H](CC(C)C)C(=O)N[C@@H](CCCN=C(N)N)C(=O)N[C@@H](Cc1c[nH]cn1)C(=O)N[C@@H](Cc1ccc(O)cc1)C(=O)N[C@@H](CC(C)C)C(=O)N[C@@H](CC(N)=O)C(=O)N[C@H](CN[C@H](C(=O)N[C@H](C(=O)N[C@@H](CCCN=C(N)N)C(=O)N[C@@H](CCC(N)=O)C(=O)N[C@@H](CCCN=C(N)N)C(=O)N[C@@H](Cc1ccc(O)cc1)C(N)=O)[C@@H](C)O)C(C)C)CC(C)C |
| > 1000 | 1.05 | 1.12 | CC(=O)N[C@@H](C)C(=O)N[C@@H](CO)C(=O)N[C@@H](CC(C)C)C(=O)N[C@@H](CCCNC(=N)N)C(=O)N[C@@H](Cc1cnc[nH]1)C(=O)N[C@@H](Cc1c[nH]c2ccccc12)C(=O)N[C@@H](CC(C)C)C(=O)N[C@@H](CC(N)=O)C(=O)N[C@@H](CC(C)C)C(=O)N[C@H](C(=O)N[C@H](C(=O)N[C@@H](CCCNC(=N)N)C(=O)N[C@@H](CCC(N)=O)C(=O)N[C@@H](CCCNC(=N)N)CN[C@@H](Cc1ccc(O)cc1)C(N)=O)[C@@H](C)O)C(C)C (Ac-ASLRHWLNLVTRQ-{Argψ(CH2NH)TyrNH2}) |
| 1090 | 52 | 5.03 | CC(=O)N[C@@H](C)C(=O)N[C@@H](CO)C(=O)N[C@@H](CC(C)C)C(=O)N[C@@H](CCCN=C(N)N)C(=O)N[C@@H](Cc1c[nH]cn1)C(=O)N[C@@H](Cc1ccc(O)cc1)C(=O)N[C@@H](CC(C)C)C(=O)N[C@@H](CC(N)=O)C(=O)N[C@@H](CC(C)C)C(=O)N[C@H](C(=O)N[C@H](CN[C@@H](CCCN=C(N)N)C(=O)N[C@@H](CCC(N)=O)C(=O)N[C@@H](CCCN=C(N)N)C(=O)N[C@@H](Cc1ccc(O)cc1)C(N)=O)[C@@H](C)O)C(C)C (Ac-ASLRHYLNLV-X1) |
| 1250 | > 10000 | > 100 | CC(=O)N[C@@H](C)C(=O)N[C@@H](CO)C(=O)N[C@@H](CC(C)C)C(=O)N[C@@H](CCCNC(=N)N)C(=O)N[C@@H](Cc1cnc[nH]1)C(=O)N[C@@H](Cc1ccc(O)cc1)C(=O)N[C@@H](CC(C)C)C(=O)N[C@@H](CC(N)=O)C(=O)N[C@@H](CC(C)C)C(=O)N[C@H](C(=O)N[C@H](C(=O)N[C@@H](CCCNC(=N)N)CN[C@@H](CCC(N)=O)C(=O)N[C@@H](CCCNC(=N)N)C(=O)N[C@@H](Cc1ccc(O)cc1)C(N)=O)[C@@H](C)O)C(C)C (Ac-ASLRHYLNLVT-X2) |
| > 10000 | 1.32 | 0.05 | CC(=O)N[C@@H](C)C(=O)N[C@@H](CO)C(=O)N[C@@H](CC(C)C)C(=O)N[C@@H](CCCN=C(N)N)C(=O)N[C@@H](Cc1c[nH]cn1)C(=O)N[C@@H](Cc1ccc(O)cc1)C(=O)N[C@@H](CC(C)C)C(=O)N[C@@H](CC(N)=O)C(=O)N[C@@H](CC(C)C)C(=O)N[C@H](C(=O)N[C@H](C(=O)N[C@@H](CCCN=C(N)N)C(=O)N[C@@H](CCC(N)=O)C(=O)N[C@@H](CCCN=C(N)N)CN[C@@H](Cc1ccc(O)cc1)C(N)=O)[C@@H](C)O)C(C)C (Ac-ASLRHYLNLVTRQ-{Argψ(CH2NH)TyrNH2}) |
| 1250 | > 10000 | > 100 | CC(=O)N[C@@H](C)C(=O)N[C@@H](CO)C(=O)N[C@@H](CC(C)C)C(=O)N[C@@H](CCCNC(=N)N)C(=O)N[C@@H](Cc1cnc[nH]1)C(=O)N[C@@H](Cc1ccc(O)cc1)C(=O)N[C@@H](CC(C)C)C(=O)N[C@@H](CC(N)=O)C(=O)N[C@@H](CC(C)C)C(=O)N[C@H](C(=O)N[C@H](C(=O)N[C@@H](CCCNC(=N)N)C(=O)N[C@@H](CCC(N)=O)C(=O)N[C@@H](CCCNC(=N)N)C(=O)N[C@H](C(N)=O)C(c1ccccc1)c1ccccc1)[C@@H](C)O)C(C)C (Ac-ASLRHYLNLVTRQR[Dip]-NH2) |
| 159 | 1.09 | 3.54 | CC(=O)N[C@@H](C)C(=O)N[C@@H](CO)C(=O)N[C@@H](CC(C)C)C(=O)N[C@@H](CCCNC(=N)N)C(=O)N[C@@H](Cc1cnc[nH]1)C(=O)N[C@@H](Cc1ccc(O)cc1)C(=O)N[C@@H](CC(C)C)C(=O)N[C@@H](CC(N)=O)C(=O)N[C@@H](Cc1cccc2ccccc12)C(=O)N[C@H](C(=O)N[C@H](C(=O)N[C@@H](CCCNC(=N)N)C(=O)N[C@@H](CCC(N)=O)C(=O)N[C@@H](CCCNC(=N)N)C(=O)N[C@@H](Cc1ccc(O)cc1)C(N)=O)[C@@H](C)O)C(C)C (Ac-ASLRHYLN[1Nal]VTRQRY-NH2) |
|  | 186 | 3.4 | CC(=O)N[C@@H](C)C(=O)N[C@@H](CO)C(=O)N[C@@H](CC(C)C)C(=O)N[C@@H](CCCNC(=N)N)C(=O)N[C@@H](Cc1cnc[nH]1)C(=O)N1Cc2ccccc2C[C@H]1C(=O)N[C@@H](CC(C)C)C(=O)N[C@@H](CC(N)=O)C(=O)N[C@@H](CC(C)C)C(=O)N[C@H](C(=O)N[C@H](C(=O)N[C@@H](CCCNC(=N)N)C(=O)N[C@@H](CCC(N)=O)C(=O)N[C@@H](CCCNC(=N)N)C(=O)N[C@@H](Cc1ccc(O)cc1)C(N)=O)[C@@H](C)O)C(C)C (Ac-ASLRH[Tic]LNLVTRQRY-NH2) |
| 275 | 5.61 |  | Ac-FSLRHFLNLVTRQRY-NH2 |

| Molecule | IC50 [1] [nM] | IC50 [2] [nM] | IC50 [3] [nM] |
| --- | --- | --- | --- |
| CCCC[C@H](NC(=O)[C@H](CO)NC(=O)[C@H](C)NC(C)=O)C(=O)N[C@@H](CCCNC(=N)N)C(=O)N[C@@H](Cc1cnc[nH]1)C(=O)N[C@@H](Cc1ccc(O)cc1)C(=O)N[C@@H](CCCC)C(=O)N[C@@H](CC(N)=O)C(=O)N[C@@H](Cc1c[nH]c2ccccc12)C(=O)N[C@@H](CCC)C(=O)N[C@H](C(=O)N[C@@H](CCCNC(=N)N)C(=O)N[C@@H](CCC(N)=O)C(=O)N[C@@H](CCCNC(=N)N)C(=O)N[C@@H](Cc1ccc(O)cc1)C(N)=O)[C@@H](C)O | 183 | 3.73 | 0.56 |
